The test has as its system BDF1 mice, s.c. Lewis lung carcinoma, T/C %. The test is described as follows: NCI In Vivo Anticancer Drug Screen. Data for tumor model Lewis Lung Carcinoma (subcutaneous) in B6D2F1 (BDF1) mice. The gist of the method:
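Transplanted tumors grown in mice; compound vs vehicle dosing; endpoint survival or tumor size; ratio T/C.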

The mark [1] stands for this setting: endpoint: mean tumor weight, dose: 50.0 mg/kg/injection, schedule: Q01DX011 (ip), vehicle: carboxymethylcellulose (CMC), higher = larger tumour.
Setting [2] is: endpoint: mean tumor weight, dose: 12.5 mg/kg/injection, schedule: Q01DX011 (ip), vehicle: carboxymethylcellulose (CMC), higher = larger tumour.
Where [3] appears, read: endpoint: mean tumor weight, dose: 25.0 mg/kg/injection, schedule: Q01DX011 (ip), vehicle: carboxymethylcellulose (CMC), higher = larger tumour.

SMILES strings stand for the structures. Values joined by “and” are separate entries in the source; they are usually repeats but may differ in a detail not shown here. Identical values can stand only once. Results filed as inconclusive are left out.

For `CC(=O)OCC(=O)[C@@]1(O)CC[C@H]2[C@@H]3C[C@H](C)C4=CC(=O)C=C[C@]4(C)[C@@]3(Br)[C@@H](O)C[C@@]21C`, the T/C is 89 % of control (endpoint: mean tumor weight, dose: 0.56 mg/kg/injection, schedule: Q01DX011 (sc), vehicle: steriod suspending solution, higher = larger tumour); 69 % of control (endpoint: mean tumor weight, dose: 1.12 mg/kg/injection, schedule: Q01DX011 (sc), vehicle: steriod suspending solution, higher = larger tumour); 57 % of control and 72 % of control (endpoint: mean tumor weight, dose: 4.5 mg/kg/injection, schedule: Q01DX011 (sc), vehicle: steriod suspending solution, higher = larger tumour); 50 % of control (endpoint: mean tumor weight, dose: 5.3 mg/kg/injection, schedule: Q01DX011 (sc), vehicle: steriod suspending solution, higher = larger tumour); 45 % of control (endpoint: mean tumor weight, dose: 7.9 mg/kg/injection, schedule: Q01DX011 (sc), vehicle: steriod suspending solution, higher = larger tumour); 52 % of control (endpoint: mean tumor weight, dose: 9.0 mg/kg/injection, schedule: Q01DX011 (sc), vehicle: steriod suspending solution, higher = larger tumour). Further, the T/C runs as follows: (endpoint: mean tumor weight, dose: 11.8 mg/kg/injection, schedule: Q01DX011 (sc), vehicle: steriod suspending solution, higher = larger tumour) 31 % of control; (endpoint: mean tumor weight, dose: 17.7 mg/kg/injection, schedule: Q01DX011 (ip), vehicle: carboxymethylcellulose (CMC), higher = larger tumour) 44 % of control; (endpoint: mean tumor weight, dose: 17.7 mg/kg/injection, schedule: Q01DX011 (sc), vehicle: steriod suspending solution, higher = larger tumour) 28 % of control and 38 % of control; (endpoint: mean tumor weight, dose: 18.0 mg/kg/injection, schedule: Q01DX011 (sc), vehicle: steriod suspending solution, higher = larger tumour) 42 % of control; (endpoint: mean tumor weight, dose: 26.6 mg/kg/injection, schedule: Q01DX011 (ip), vehicle: carboxymethylcellulose (CMC), higher = larger tumour) 48 % of control; (endpoint: mean tumor weight, dose: 26.6 mg/kg/injection, schedule: Q01DX011 (sc), vehicle: steriod suspending solution, higher = larger tumour) 37 % of control. The T/C (endpoint: mean tumor weight, dose: 27.0 mg/kg/injection, schedule: Q01DX011 (sc), vehicle: steriod suspending solution, higher = larger tumour) was 37 % of control; the T/C (endpoint: mean tumor weight, dose: 40.0 mg/kg/injection, schedule: Q01DX011 (ip), vehicle: carboxymethylcellulose (CMC), higher = larger tumour) was 13 % of control; the T/C (endpoint: mean tumor weight, dose: 40.0 mg/kg/injection, schedule: Q01DX011 (sc), vehicle: steriod suspending solution, higher = larger tumour) is 32 % of control; the T/C under setting [1] is 59 % of control; the T/C (endpoint: mean tumor weight, dose: 60.0 mg/kg/injection, schedule: Q01DX011 (ip), vehicle: carboxymethylcellulose (CMC), higher = larger tumour) was 6 % of control; the T/C (endpoint: mean tumor weight, dose: 60.0 mg/kg/injection, schedule: Q01DX011 (sc), vehicle: steriod suspending solution, higher = larger tumour) was 34 % of control.
With `Cc1cc(O)c2cc3c(O)c(O)ccc3cc2c1`, the T/C (endpoint: mean tumor weight, dose: 0.25 mg/kg/injection, schedule: Q01DX011 (ip), vehicle: saline, higher = larger tumour) is 86 % of control; the T/C (endpoint: mean tumor weight, dose: 0.5 mg/kg/injection, schedule: Q01DX011 (ip), vehicle: saline, higher = larger tumour) is 116 % of control; the T/C (endpoint: mean tumor weight, dose: 1.0 mg/kg/injection, schedule: Q01DX011 (ip), vehicle: saline, higher = larger tumour) is 62 % of control; the T/C (endpoint: mean tumor weight, dose: 2.0 mg/kg/injection, schedule: Q01DX011 (ip), vehicle: saline, higher = larger tumour) was 31 % of control and 52 % of control; the T/C (endpoint: mean tumor weight, dose: 4.0 mg/kg/injection, schedule: Q01DX011 (ip), vehicle: saline, higher = larger tumour) was 36 % of control.
Take `COc1ccc(Nc2ccnc3cc(Cl)ccc23)cc1CN(CCCl)CCCl`: the T/C was 113 % of control (endpoint: mean tumor weight, dose: 0.06 mg/kg/injection, schedule: Q01DX011 (ip), vehicle: other, higher = larger tumour); 94 % of control (endpoint: mean tumor weight, dose: 0.12 mg/kg/injection, schedule: Q01DX011 (ip), vehicle: other, higher = larger tumour); 85 % of control (endpoint: mean tumor weight, dose: 0.25 mg/kg/injection, schedule: Q01DX011 (ip), vehicle: other, higher = larger tumour); 26 % of control and 44 % of control (endpoint: mean tumor weight, dose: 0.5 mg/kg/injection, schedule: Q01DX011 (ip), vehicle: other, higher = larger tumour); 32 % of control (endpoint: mean tumor weight, dose: 1.0 mg/kg/injection, schedule: Q01DX011 (ip), vehicle: other, higher = larger tumour).
Take `O=c1cc(-c2ccccc2)oc2cccc(O)c12`: the T/C is, setting by setting: (endpoint: mean tumor weight, dose: 50.0 mg/kg/injection, schedule: Q01DX010 (ip), vehicle: saline, higher = larger tumour) 73 % of control; (endpoint: mean tumor weight, dose: 100.0 mg/kg/injection, schedule: Q01DX010 (ip), vehicle: saline, higher = larger tumour) 70 % of control; (endpoint: mean tumor weight, dose: 200.0 mg/kg/injection, schedule: Q01DX010 (ip), vehicle: saline, higher = larger tumour) 82 % of control; (endpoint: mean tumor weight, dose: 400.0 mg/kg/injection, schedule: Q01DX010 (ip), vehicle: saline, higher = larger tumour) 67 % of control.
Regarding `Cc1ccc(NC(=O)c2ccccc2)cc1[As]=[As]c1cc(NC(=O)c2ccccc2)ccc1C` (stereo not drawn), the T/C runs as follows: (endpoint: median survival time, dose: 0.63 mg/kg/injection, schedule: Q01DX009 (ip), vehicle: Klucel (hydroxypropylcellulose) (HPC), higher = longer survival) 100 % of control; (endpoint: median survival time, dose: 1.25 mg/kg/injection, schedule: Q01DX009 (ip), vehicle: Klucel (hydroxypropylcellulose) (HPC), higher = longer survival) 100 % of control.
Regarding `c1ccc([B-]2([C+]3CCCCC3)N3CCCCC3C3CCCCN32)cc1` (stereo not drawn), the T/C is, setting by setting: (endpoint: median survival time, dose: 12.5 mg/kg/injection, schedule: Q01DX009 (ip), vehicle: Klucel (hydroxypropylcellulose) (HPC), higher = longer survival) 89 % of control; (endpoint: median survival time, dose: 25.0 mg/kg/injection, schedule: Q01DX009 (ip), vehicle: Klucel (hydroxypropylcellulose) (HPC), higher = longer survival) 106 % of control.
Take `COc1cc2c(c(OC)c1OC)-c1cc3c(cc1[C@@H](OC(C)=O)[C@@H]1COC(=O)[C@H]1C2)OCO3`: the T/C by setting is: (endpoint: median survival time, dose: 2.5 mg/kg/injection, schedule: Q01DX009 (ip), vehicle: Klucel (hydroxypropylcellulose) (HPC), higher = longer survival) 94 % of control; (endpoint: median survival time, dose: 5.0 mg/kg/injection, schedule: Q01DX009 (ip), vehicle: Klucel (hydroxypropylcellulose) (HPC), higher = longer survival) 97 % of control; (endpoint: median survival time, dose: 10.0 mg/kg/injection, schedule: Q01DX009 (ip), vehicle: Klucel (hydroxypropylcellulose) (HPC), higher = longer survival) 95 % of control.
For `NC(=S)N/N=C/c1nccc2ccccc12`, the T/C is 103 % of control under setting [2]; 48 % of control under setting [3]; 64 % of control (endpoint: mean tumor weight, dose: 26.0 mg/kg/injection, schedule: Q01DX011 (ip), vehicle: saline, higher = larger tumour); 56 % of control (endpoint: mean tumor weight, dose: 33.5 mg/kg/injection, schedule: Q01DX011 (ip), vehicle: carboxymethylcellulose (CMC), higher = larger tumour); 16 % of control (endpoint: mean tumor weight, dose: 38.0 mg/kg/injection, schedule: Q01DX011 (ip), vehicle: saline, higher = larger tumour); 42 % of control (endpoint: mean tumor weight, dose: 40.0 mg/kg/injection, schedule: Q01DX011 (oral), vehicle: saline, higher = larger tumour). The T/C (endpoint: mean tumor weight, dose: 56.0 mg/kg/injection, schedule: Q01DX011 (ip), vehicle: saline, higher = larger tumour) was 3 % of control; the T/C (endpoint: median survival time, dose: 9.4 mg/kg/injection, schedule: Q01DX009 (ip), vehicle: saline with Tween-80, higher = longer survival) was 124 % of control; the T/C (endpoint: median survival time, dose: 18.8 mg/kg/injection, schedule: Q01DX009 (ip), vehicle: saline with Tween-80, higher = longer survival) is 98 % of control and 108 % of control; the T/C (endpoint: median survival time, dose: 37.5 mg/kg/injection, schedule: Q01DX009 (ip), vehicle: saline with Tween-80, higher = longer survival) is 98 % of control.
Regarding `CC[n+]1ccc(Nc2ccc(/C=C/c3ccc4cc(Nc5cc[n+](CC)cc5)ccc4[n+]3CC)cc2)cc1`, the T/C is, setting by setting: (endpoint: median survival time, dose: 2.5 mg/kg/injection, schedule: Q01DX009 (ip), vehicle: saline, higher = longer survival) 95 % of control; (endpoint: median survival time, dose: 5.0 mg/kg/injection, schedule: Q01DX009 (ip), vehicle: saline, higher = longer survival) 100 % of control; (endpoint: median survival time, dose: 10.0 mg/kg/injection, schedule: Q01DX009 (ip), vehicle: saline, higher = longer survival) 91 % of control.
Consider `CO[C@@]12[C@H](COC(N)=O)C3=C(C(=O)C(C)=C(N)C3=O)N1C[C@@H]1N[C@@H]12`, for which the T/C runs as follows: (endpoint: median survival time, dose: 0.12 mg/kg/injection, schedule: Q01DX009 (ip), vehicle: saline, higher = longer survival) 98 % of control; (endpoint: median survival time, dose: 0.25 mg/kg/injection, schedule: Q01DX009 (ip), vehicle: Klucel (hydroxypropylcellulose) (HPC), higher = longer survival) 96 % of control; (endpoint: median survival time, dose: 0.25 mg/kg/injection, schedule: Q01DX009 (ip), vehicle: saline, higher = longer survival) 98 % of control; (endpoint: median survival time, dose: 0.5 mg/kg/injection, schedule: Q01DX009 (ip), vehicle: Klucel (hydroxypropylcellulose) (HPC), higher = longer survival) 96 % of control; (endpoint: median survival time, dose: 0.5 mg/kg/injection, schedule: Q01DX009 (ip), vehicle: saline, higher = longer survival) 96 % of control; (endpoint: median survival time, dose: 1.0 mg/kg/injection, schedule: Q01DX009 (ip), vehicle: saline, higher = longer survival) 103 % of control.
With `C=CCNc1ccc(C)cc1`, the T/C was 92 % of control under setting [2]; 93 % of control under setting [3]; 37 % of control under setting [1]; 5 % of control (endpoint: mean tumor weight, dose: 100.0 mg/kg/injection, schedule: Q01DX011 (ip), vehicle: carboxymethylcellulose (CMC), higher = larger tumour).
For `Nc1ccc(N=Nc2ccccc2)c(N)c1`, the T/C by setting is: (endpoint: median survival time, dose: 2.25 mg/kg/injection, schedule: Q01DX009 (ip), vehicle: Klucel (hydroxypropylcellulose) (HPC), higher = longer survival) 109 % of control; (endpoint: median survival time, dose: 4.5 mg/kg/injection, schedule: Q01DX009 (ip), vehicle: Klucel (hydroxypropylcellulose) (HPC), higher = longer survival) 102 % of control; (endpoint: median survival time, dose: 9.0 mg/kg/injection, schedule: Q01DX009 (ip), vehicle: Klucel (hydroxypropylcellulose) (HPC), higher = longer survival) 106 % of control; (endpoint: median survival time, dose: 18.0 mg/kg/injection, schedule: Q01DX009 (ip), vehicle: Klucel (hydroxypropylcellulose) (HPC), higher = longer survival) 101 % of control; (endpoint: median survival time, dose: 75.0 mg/kg/injection, schedule: Q01DX009 (ip), vehicle: Klucel (hydroxypropylcellulose) (HPC), higher = longer survival) 99 % of control; (endpoint: median survival time, dose: 200.0 mg/kg/injection, schedule: Q01DX009 (ip), vehicle: Klucel (hydroxypropylcellulose) (HPC), higher = longer survival) 97 % of control.

The values are drawn from PubChem BioAssay AID270 (DTP/NCI, 2004).
